Measurements published in US20210355154A1, “Halogenated Cholesterol Analogues and Methods of Making and Using Same” (THE REGENTS OF THE UNIVERSITY OF MICHIGAN, priority 2018, published 2021).

Test system: ApoE mouse
Experiment: PET imaging of [^18F]NP-59 in a control BL6 mouse and an ApoE mouse
Assay type: in vivo
Method: [^18F]NP-59 was injected into a control BL6 mouse and an ApoE mouse of similar weight. Equivalent activities were injected into each mouse, and PET images taken approximately 60 minutes after injection are shown in FIG. 1. The images are PET maximal intensity projection images in the oblique coronal plane to obtain relevant anatomic structures. In the upper right-hand corner of each image are axial images through the carotid artery.

Structure (SMILES): CC(C)CCC[C@@H](C)[C@H]1CCC2C3C[C@@H](C[18F])C4=C(CC[C@H](O)C4)C3CC[C@@]21C (stereo partly drawn) [[^18F]NP-59]
- differential uptake between the mice (PET) (ApoE mouse (atherosclerotic disease) vs control BL6 mouse, equivalent activities injected, PET approximately 60 minutes after injection): higher uptake in the ApoE mouse
- background uptake (PET) (ApoE mouse vs BL6 mouse of similar weight, identical amounts of tracer injected): higher background uptake
- organs showing uptake of the compound (PET images) (BL6 and ApoE mice, PET approximately 60 minutes after injection): uptake of the compound in the liver, adrenal glands, and liver
